Laboratory results published in patent US7829277B2, “Methods for identifying compounds that suppress chemically-induced carcinogenesis” (The Regents of the University of California, priority 2004, dated 2010).

Tests used:
[1] = tested on: PC3 prostate cancer cells; settings: PC3 prostate cancer cells treated with genistein; cited from earlier work
[2] = tested on: malignant prostate epithelial cells (RWPE-2); assay: Microarray gene expression profile (Affymetrix Human Genome U133A) after lunasin treatment; format: cell-based
Method: (§1) Rostate epithelial cells, RWPE-1 (normal) and RWPE-2 (malignant) were cultivated in the Keratinocyte-Serum free medium with 5 ng/ml rEGF and 0.05 mg/ml bovine pituitary extract. Cells were grown to 70% confluence, after which, cells were harvested and transferred to a 150 mm^2 plate at a cell density of 1×10^7 cells/ml. Lunasin peptide was added to a final concentration of 2 μM. The cells were incubated for 24 hours after lunasin treatment. […] RWPE-1 and RWPE-2 cells that were not treated with lunasin served as negative controls.
(§2) Microarrray analysis. Total RNA from each treatment was isolated by Trizol (Invitrogen, Carlsbad, Calif.). The cDNA used in microarray analysis was synthesized from 10 μg of total RNA using the SuperScript Choice system (Invitrogen). The cDNA was then transcribed in vitro in the presence of biotin-labeled nucleotide triphophates using T7 RNA polymerase after phenol-chloroform extraction and ethanol precipitation. cRNA was purified using the RNeasy mini kit (Qiagen) and fragmented at 94° C. for 30 min in the buffer containing 0.2 M Tris-acetate (pH 8.1) 0.5 M potassium acetate, and 0.15 M magnesium acetate. Fragmented cRNA was hybridized overnight at 45° C. to the human genome U133A Genechips (Affymetrix) representing approximately 22,215 transcripts. Hybridization was then detected using a confocal laser scanner (Affymetrix). The gene expression levels of samples were normalized and analyzed using RMA analysis (Irizarry et al., 2003).

[3] = tested on: normal prostate epithelial cells (RWPE-1); assay: as above; format: cell-based
Method: as §1, §2

[4] = tested on: THBS1, PRKAR1A, TOB1, HIF1A mRNA in RWPE-1 and RWPE-2 cells; assay: Real-time RT-PCR verification of selected genes; format: cell-based, human; settings: RWPE-1 and RWPE-2 treated with 2 microMoles lunasin; normalized to β-actin
Method: HIFIA-hypoxia-inducible factor 1, alpha subunit; PRKARIA-protein kinase, cAMP-dependent, regulatory, type I, alpha; TOB 1-transducer of ERBB2, 1; THSB 1-thrombospondin 1
Quantitative PCR. To confirm microarray data, the total RNA prepared for microarray analysis was used for RT-PCR analysis of selected genes. The cDNA used for quantitative PCR was synthesized from 3 μg of total RNA using the SuperScript First-Strand Synthesis for RT-PCR kit (Invitrogen), following manufacturer's recommendations. The cDNA was diluted 4-fold and 2 μl of cDNA was added to the quantitative PCR reaction using FAM-labeled TaqMan probes purchased from Applied Biosystems. The quantitative PCR reactions were performed in triplicate using a PRISM® ABI 7900HT Sequence Detection System (Applied Biosystems) and the expression of the β-actin gene (BACT) was used for normalization. Changes in expression were calculated using relative quantification as follows: ΔΔCt=ΔCtq−ΔCtcb; where Ct=the cycle number at which amplification rises above the background threshold, ΔCt=the change in Ct between two test samples, q=the target gene, and cb=the calibrator gene. Gene expression is then calculated as 2^−ΔΔ^Ct (Applied Biosystems).

[5] = tested on: C3H 10T1/2 mouse embryo fibroblast cells; settings: lunasin added exogenously at nanomolar concentrations; cited from earlier work
female SENCAR mice = settings: topical application; cited from earlier work
[6] = tested on: E1A-transfected C3H10T1/2 cells; settings: cited from earlier work
[7] = tested on: E1A-transfected mouse fibroblast NIH 3T3 cells; settings: E1A-transfected NIH 3T3 cells; cited from earlier work
[8] = tested on: p21/WAF1/Cip1 protein in cells transfected by the E1A oncogene; settings: not in untransfected control cells; cited from earlier work
deacetylated histone H4 = deacetylated histone H4 (Homo sapiens, UniProt P62805); settings: chemically synthesized lunasin; cited from earlier work
nucleus = settings: after 18 hours of incubation; cited from earlier work
[9] = tested on: normal prostate epithelial cells; settings: cited from earlier work
[10] = tested on: prostate cancer cell lines; settings: cited from earlier work
[11] = RWPE-1, 24 hour exposure to 2 micromolar lunasin

For `O=c1c(-c2ccc(O)cc2)coc2cc(O)cc(O)c12` [genistein], the “gene expression regulation (microarray)” value [1] is given as “regulates the expression of genes that are involved in control of cell growth, cell cycle, apoptosis, cell signaling, angiogenesis, tumor cell invasion and metastasis”.

In the case of lunasin, the genes down-regulated ([2]; RWPE-2, 24 h lunasin) is reported as “No genes were down-regulated”, the “number of genes up-regulated (greater than twofold)” value ([2]; RWPE-2 malignant cells, 24 h exposure to lunasin peptide) is reported as 2 genes and the genes down-regulated ([3]; RWPE-1, 24 h lunasin) is reported as “No genes were down-regulated”. For the same molecule, the “Fold-change BNIP3, NIP3 (BCL2/adenovirus E1B 19 kDa interacting prot. 3)” value [3, 11] was 2.05, the “Fold-change BUB1B, BUBR1” value [3, 11] was 2.23 and the “Fold-change ERBB2IP, ERBIN (erbb2 interacting protein)” value [3, 11] was 2.23. The “Fold-change MAD2L1 (MAD2 mitotic arrest deficient-like 1)” value [3, 11] was 2.12, the “Fold-change PORIMIN (pro-oncosis receptor inducing membrane injury gene)” value [3, 11] was 2.26 and the “Fold-change PRKAR1A, PKA (protein kinase, cAMP-dependent, regulatory, type I, alpha)” value [3, 11] was 2.45. The “Fold-change PRKCL2, PRK2 (protein kinase C-like 2)” value [3, 11] was 2.33, the “Fold-change PSMC6 (proteasome 26S subunit, ATPase, 6)” value [3, 11] was 2.58 and the “Fold-change RANBP2 (RAN binding protein 2)” value [3, 11] was 2.36. The “Fold-change SMURF2 (E3 ubiquitin ligase SMURF2)” value [3, 11] was 2.29, the “Fold-change SPTLC1 (serine palmitoyltransferase, long chain base subunit 1)” value [3, 11] was 2.12 and the “Fold-change THBS1, TSP1 (thrombospondin 1)” value [3, 11] was 2.05. The “Fold-change TOB1 (transducer of ERBB2, 1)” value [3, 11] was 2.32, the “Fold-change TTK (TTK protein kinase)” value [3, 11] was 2.08 and the “Fold-change UBE1C (ubiquitin-activating enzyme E1C)” value [3, 11] was 2.15. For the same molecule, the “Fold-change USP1 (ubiquitin specific protease 1)” value [3, 11] was 2.23, the “total number of genes with a greater than twofold change in expression” value ([3]; RWPE-1 and RWPE-2 together, of up to 22,215 genes screened, 24 h lunasin) was 123 genes and the “number of genes up-regulated (greater than twofold)” value ([3]; RWPE-1 normal cells, 24 h exposure to lunasin peptide) was 121 genes. For the same molecule, the “BTB (POZ) containing domain 1 (ABTB1 or BPOZ) gene regulation (microarray)” value ([3]; microarray, lunasin treatment) was “up-regulated”, the “SP3 gene regulation (microarray)” value ([3]; microarray, lunasin treatment) was “up-regulated” and the “connexin 43 gap junction protein expression (microarray)” value ([3]; microarray, lunasin treatment) was “up-regulates”. For the same molecule, the “cyclin D1 regulation (microarray)” value ([3]; microarray, lunasin treatment) was “do not show down regulation”, the “hypoxia-inducible factor-1α (HIF1-A) gene regulation (microarray)” value ([3]; microarray, lunasin treatment) was “up-regulated” and the “p21/WAF1/Cip1 transcript regulation (microarray)” value ([3]; microarray, lunasin treatment) was “did not show up-regulation”. For the same molecule, the “real-time RT-PCR mRNA level changes of THBS1, PRKAR1A, TOB1, HIF1A” value [4] was “consistent with the microarray data”, the “suppression of chemical carcinogen-induced (DMBA, MCA) foci formation” value [5] was “Significant suppression” and the skin tumorigenesis (female SENCAR mice) was “inhibited skin tumorigenesis”. For the same molecule, the apoptosis induction [6] was “induce apoptosis”, the foci formation [7] was “suppress foci formation” and the p21/WAF1/Cip1 protein levels [8] was “increased by five fold”. The “binding to histone in vitro” value (deacetylated histone H4) was “preferentially binds deacetylated histone H4” and the subcellular localization (nucleus) was “localize in the nucleus”.

B1: BBI: soybean derived serine protease inhibitor with anti-carcinogenic activity (protein, UniProt P01055 40-110, looked up)
Bowman-Birk type proteinase …: DDESSKPCCDQCACTKSNPPQCRCSDMRLNSCHSACKSCICALSYPAQCFCVDITDFCYEPCKPSEDDKEN
In the case of B1, the “effect on normal prostate epithelial cells” value [9] is given as “no effect” and the “growth, invasion and clonogenic survival of prostate cancer cell lines” value [10] is given as “inhibited the growth, invasion and clonogenic survival”.
